Series [1] relates to A. fumigatus (RCMB 002008). Description: Agar well diffusion, inhibition zone. The conditions noted are these: 10 mg/mL of the tested compounds. Format: cell-based. The method, then: (§1) The antimicrobial activity of the free ligands and the corresponding Cu(II) complexes was determined against different categories of microbes (Table 5). All inhibition zones were determined at 10 mg/mL of the tested compounds. […] The largest inhibition zones were found for B. subtilis (25 mm), which is very close to the standard Gentamycin (26 mm). […] Complex 1 evidenced antimicrobial activity against all microbes except C. albicans.
(§2) Method S2: Antimi crobial studies a) Tested pathogenic microbes
(§3) The antibacterial a ctivity of the studied ligands and their Cu(II) complexes were evaluated against two Gram positive bacteria ((S. aureus (ATCC 25923) and B. subtilis (RCMB015(1)NRR LB-543)), two Gram negatvie bacteria ((E. coli (ATCC 25922) and P. vulgaris (RCMB 004(1)ATCC 13315)) and two fungi ((A. fumigatus […]
was used as standard antibacterial agent. The samples maintained in Brain heart infusion (BHI) at 20 °C; […] of each stock–c ulture was added to 3 mL of BHI […]
broth. […]
(§4) 0.5). In case of fungi A. fumigatus (RCMB 002008) and C. albicans (RCMB 005003(1) ATCC 10231), the used medium in antagonistic activity against tested fungi is Potato Dextrose Agar, where Fluconazole was used standard antifungal agent. b) Agar well diffusion method
(§5) Synthetic compounds were prepared at concentration 10 mg/mL dissolved in DMSO as stock solutions. Preparation of sterilized Mueller Hinton agar plates seeded with tested pathogenic b acteria occurred. The wells are done by sterilized cork borer in size […]
(§6) comparably with DMSO as control. The plates were incubated at 37°C for 24 h. after incubation period; antimicrobial activity was d etermined by inhibition zones. […]

In series [2] the test system is E. coli (ATCC 25922). Kind of series: Agar well diffusion, inhibition zone. Particulars: 10 mg/mL of the tested compounds. Format: cell-based. Here is the method: as §1, §2, §3
(§7) was used as standard antibacterial agent. The samples maintained in Brain heart infusion (BHI) at 20 °C; […] of each stock–c ulture was added to 3 mL of BHI broth. Overnight cultures were kept for 24 h at 37 °C ± 1 °C and the purity of cultures was checked aft er 24 h of incubation. […]
(§8) b) Agar well diffusion method
as §5, §6

The test system of series [3] is S. aureus (ATCC 25923). Kind of series: Agar well diffusion, inhibition zone. Particulars: 10 mg/mL of the tested compounds. In kind it is cell-based. The method, then:
as §1, §2, §3, §7, §8, §5, §6

The subject of series [4] is P. vulgaris (RCMB 004(1)ATCC 13315). Kind of series: Agar well diffusion, inhibition zone. In kind it is cell-based. The conditions noted are these: 10 mg/mL of the tested compounds. The method, then:
as §1, §2, §3, §7, §8, §5, §6

The subject of series [5] is B. subtilis (RCMB015(1)NRR LB-543). Description: Agar well diffusion, inhibition zone. Particulars: 10 mg/mL of the tested compounds. Format: cell-based. The method, then:
as §1, §2, §3, §7, §8, §5, §6

For series [6], the system named is E. coli (ATCC 25922). Description: Minimum Inhibitory Concentration (MIC). Format: cell-based. Here is the method:
as §2, §3, §7
(§9) c) Minimum Inhibitory Concentration (MIC)
(§10) Different dilutions of the compounds are inoculat ed with tested pathogenic microbes.
(§11) After incubation period of 96 well microplate, the results are meas ured using microplate reader. To determine at what level the MIC endpoint is established; subculture of test samples at different concentrati ons occurred in nutrient agar plates.

Series [7] concerns S. aureus (ATCC 25923). Kind of series: Minimum Inhibitory Concentration (MIC). Format: cell-based. Here is the method:
as §2, §3, §7, §9, §10, §11

Series [8] has as its system P. vulgaris (RCMB 004(1)ATCC 13315). Kind of series: Minimum Inhibitory Concentration (MIC). Format: cell-based. The method, then:
as §2, §3, §7, §9, §10, §11

Series [9] concerns B. subtilis (RCMB015(1)NRR LB-543). Description: Minimum Inhibitory Concentration (MIC). Format: cell-based. The method, then:
as §2, §3, §7, §9, §10, §11

Series [10] deals with A. fumigatus (RCMB 002008). Description: Minimum Inhibitory Concentration (MIC). In kind it is cell-based. The method, then: as §2
(§12) The antibacterial a ctivity of the studied ligands and their Cu(II) complexes were evaluated against two Gram positive bacteria ((S. aureus (ATCC 25923) and B. […]
0.5). In case of fungi A. fumigatus (RCMB 002008) and C. albicans (RCMB 005003(1) ATCC 10231), the used medium in antagonistic activity against tested fungi is Potato Dextrose Agar, where Fluconazole was used standard antifungal agent. […]
as §9, §10, §11

For series [11], the system named is C. albicans (RCMB 005003(1) ATCC 10231). Description: Agar well diffusion, inhibition zone. Format: cell-based. The conditions noted are these: 10 mg/mL of the tested compounds. The method, then:
as §1, §2, §12, §4, §5, §6

The nature of series [12]: Cytotoxic activity on normal cells, MTT viability assay. In kind it is cell-based, human. Particulars: human, MRC-5 normal lung fibroblast cells; for viability at 24 h, 2.5 µM: sample conc. 2.5 µM; for viability at 24 h, 5 µM: sample conc. 5.0 µM; for viability at 24 h, 9.8 µM: sample conc. 9.8 µM; for viability at 24 h, 39.1 µM: sample conc. 39.1 µM; for CC50 at 24 h: MRC-5 cells, MTT. The gist of the method:
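MRC-5 fibroblasts seeded at 1×10^4 cells/well in DMEM with 10% FBS were exposed to two-fold serial dilutions of compound for 24 h at 37 °C, in triplicate. Viability was read by MTT (4 h, OD 590 nm) as % of untreated cells. IC50 was taken from dose-response curves.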

Consider `CC(=NNc1nc(N2CCOCC2)nc(N2CCOCC2)n1)c1ccccc1[O-].CC(=O)[O-].[Cu+2]` [Complex 2, [Cu(DMOT)(CH3COO)]], for which the Inhibition zone diameters in [1] is reported as 15 mm; in the series with E. coli (ATCC 25922) [2], 14 mm; with S. aureus (ATCC 25923) [3], 11 mm; in series [4], 15 mm; in series [5] it was 25 mm; in series [11] it was 10 mm. Also, the MIC with E. coli (ATCC 25922) [6] was 1250 µg/mL; in the series with S. aureus (ATCC 25923) [7], 1250 µg/mL; in series [8] it was 1250 µg/mL; in series [9], 39.06 µg/mL; in series [10], 625 µg/mL.

For the compound `CC(=NNc1nc(N2CCOCC2)nc(N2CCOCC2)n1)c1ccccc1[O-].O=[N+]([O-])[O-].[Cu+2]` [Complex 3, [Cu(DMOT)(NO3)]], the Inhibition zone diameters entry was “no antifungal activity” in series [1]; 15 mm in the series with E. coli (ATCC 25922) [2]; 12 mm with S. aureus (ATCC 25923) [3]; 13 mm in series [4]; 24 mm in [5]; “no antifungal activity” in series [11]. Further, the MIC in the series on E. coli (ATCC 25922) [6] is 312.5 µg/mL; against S. aureus (ATCC 25923) [7], 1250 µg/mL; in series [8], 1250 µg/mL; in series [9], 78.125 µg/mL.

As to `CC(=NNc1nc(N2CCOCC2)nc(N2CCOCC2)n1)c1ccccc1N` [DMAT, 2-(1-(2-(4,6-dimorpholino-1,3,5-triazin-2-yl)hydrazono)ethyl)aniline], in series [12] (MRC-5, Table S10), the viability at 24 h, 2.5 µM amounted to 100%; the viability at 24 h, 5 µM amounted to 100%; the viability at 24 h, 9.8 µM is 100%; the viability at 24 h, 39.1 µM worked out at 100%. Further, in [12] (MRC-5, sample conc. 19.6 µM, Table S10), the viability at 24 h, 19.6 µM stood at 100%. Further, in [12] (MRC-5, sample conc. 78.4 µM, Table S10), the viability at 24 h, 78.4 µM came to 100%. Also, in series [12] (MRC-5, sample conc. 156.8 µM, Table S10), the viability at 24 h, 156.8 µM was found to be 99.8%. For the same compound, in series [12] (MRC-5, sample conc. 313.7 µM, Table S10), the viability at 24 h, 313.7 µM was found to be 89.3%. The viability at 24 h, 627.4 µM in series [12] (MRC-5, sample conc. 627.4 µM, Table S10) worked out at 53.9%. Besides, the viability at 24 h, 1254.8 µM in series [12] (MRC-5, sample conc. 1254.8 µM, Table S10) came to 26.1%. Moreover, in series [12], the CC50 at 24 h was 716 µM.

In series [12] (MRC-5, Table S12), `CC(=NNc1nc(N2CCOCC2)nc(N2CCOCC2)n1)c1ccccc1O` [DMOHT, 2-(1-(2-(4,6-dimorpholino-1,3,5-triazin-2-yl)hydrazono)ethyl)phenol] registered a viability at 24 h, 2.5 µM of 100%; a viability at 24 h, 5 µM of 100%; a viability at 24 h, 9.8 µM of 100%; a viability at 24 h, 39.1 µM of 100%. Besides, the viability at 24 h, 19.5 µM in series [12] (MRC-5, sample conc. 19.5 µM, Table S12) came to 100%. This compound gave a viability at 24 h, 78.2 µM in series [12] (MRC-5, sample conc. 78.2 µM, Table S12) of 100%. Besides, in [12] (MRC-5, sample conc. 156.5 µM, Table S12), the viability at 24 h, 156.5 µM came to 97.9%. The same compound showed a viability at 24 h, 312.9 µM in series [12] (MRC-5, sample conc. 312.9 µM, Table S12) of 89.6%. In series [12] (MRC-5, sample conc. 625.8 µM, Table S12), this compound returned a viability at 24 h, 625.8 µM of 67.6%. Also, the viability at 24 h, 1251.7 µM in [12] (MRC-5, sample conc. 1251.7 µM, Table S12) turned out to be 38.2%. In addition, in series [12], the 50% cytotoxic concentration (CC50) at 24 h is 1000 µM.

The values above are taken from publication PMC9106035, “Synthesis, X-ray Structure and Biological Studies of New Self-Assembled Cu(II) Complexes Derived from s-Triazine Schiff Base Ligand” (Molecules, 2022).
